This is an account of results in patent publication US8466290B2, “STAT3 inhibitor containing quinolinecarboxamide derivative as active ingredient” (Pharma IP General Incorporated Association, priority 2008, dated 2013).

The subject of the first assay is MDA-MB-435S. Put plainly: MDA-MB-435S cell growth inhibitory activity. The following applies: Homo sapiens, compound at 20 μM, 72 hours, read-out: Cell growth inhibitory activity (%). The assay is classed as cell-based. On the procedure: […] Each well was washed three times with a medium. Then, after addition of 100 μL/well of a medium and 20 μL/well of CellTiter 96 AQueous One Solution Reagent (Promega Corp.), the cells were incubated at 37° C. for 2 hours in the presence of 5% CO2.
Regarding `O=C(Nc1nnc(-c2ccccc2)o1)c1cc(-c2ccccc2)nc2ccccc12` [Ia-3, 2-phenyl-N-(5-phenyl-1,3,4-oxadiazol-2-yl)-4-quinolinecarboxamide], the inhibition at 20 µM was 53%.

Consider `COc1ccc2nc(-c3ccccc3)cc(C(=O)Nc3nnc(-c4ccco4)o3)c2c1` [Ia-23, N-[5-(2-furyl)-1,3,4-oxadiazol-2-yl]-6-methoxy-2-phenyl-4-quinolinecarboxamide], for which the inhibition at 20 µM worked out at 50%.

For the compound `Cc1ccc(-c2cc(C(=O)Nc3nnc(-c4ccco4)o3)c3cccc(C)c3n2)cc1` [Ia-27, N-[5-(2-furyl)-1,3,4-oxadiazol-2-yl]-8-methyl-2-(4-tolyl)-4-quinolinecarboxamide], the inhibition at 20 µM was determined as 99%.

With `Cc1ccc2nc(-c3cccs3)cc(C(=O)Nc3nnc(-c4ccco4)o3)c2c1` [Ia-29, N-[5-(2-furyl)-1,3,4-oxadiazol-2-yl]-6-methyl-2-(2-thienyl)-4-quinolinecarboxamide], the inhibition at 20 µM was found to be 98%.

Regarding `O=C(Nc1nnc(-c2ccco2)o1)c1cc(-c2cccs2)nc2ccc(Cl)cc12` [Ia-30, 6-chloro-N-[5-(2-furyl)-1,3,4-oxadiazol-2-yl]-2-(2-thienyl)-4-quinolinecarboxamide], the inhibition at 20 µM was greater than 100%.

A further assay relates to STAT3. Briefly: STAT3 transcription inhibition test (reporter gene method, oncostatin M stimulation). The class given is cell-based. The settings on record: Homo sapiens; compound at 100 μM; STAT3 reporter HeLa stable cell line; oncostatin M 10 ng/mL, 4 hours; read-out: STAT3 transcription inhibitory activity (%). As for the experimental part: The inhibition of STAT3 transcription was evaluated by using STAT3 reporter HeLa stable cell line (Panomics Inc., catalog No. RC0003), a cell line for the reporter gene method, and performing the following method according to the appendix included therein.
STAT3 reporter HeLa stable cell line subcultured and maintained in a Dulbecco's modified Eagle's medium (DMEM) containing 10% fetal bovine serum, 100 units/mL penicillin, and 100 μg/mL streptomycin was inoculated at a concentration of 40000 cells/well to a 96-well plate (white) and attached to the plate by overnight incubation at 37° C. under 5% CO2. After addition of each evaluation compound adjusted to various concentrations (adjusted with a DMSO solution), the cells were precultured for 1 hour. Then, oncostatin M for activating STAT3 was added at a final concentration 10 ng/mL, and the cells were further cultured at 37° C. under 5% CO2 for 4 hours. Luciferase activity derived from the cells was determined using Steady-Glo Luciferase Assay System (Promega Corp.), and STAT3 transcriptional activity scores were calculated according to the following formula: STAT3 transcriptional activity score (%)=100×(Lchem−L0)/(LDMSO−L0) Lo: luminescence intensity obtained without stimulation with oncostatin M Lchem: luminescence intensity obtained by the addition of a test sample LDMSO: luminescence intensity obtained by the addition of only a solvent for dissolving a test sample
As to `O=C(Nc1nnc(-c2ccoc2)o1)c1cc(-c2ccccc2)nc2ccccc12` [Ia-2, N-[5-(3-furyl)-1,3,4-oxadiazol-2-yl]-2-phenyl-4-quinolinecarboxamide], the inhibition at 100 µM was greater than 100%.

As for `O=C(Nc1nnc(-c2ccccc2)o1)c1cc(-c2ccccc2)nc2ccccc12` [Ia-3, 2-phenyl-N-(5-phenyl-1,3,4-oxadiazol-2-yl)-4-quinolinecarboxamide], the inhibition at 100 µM is greater than 100%.

For the compound `O=C(Nc1nnc(-c2ccc(Cl)cc2)o1)c1cc(-c2ccccc2)nc2ccccc12` [Ia-5, N-[5-(4-chlorophenyl)-1,3,4-oxadiazol-2-yl]-2-phenyl-4-quinolinecarboxamide], the inhibition at 100 µM was greater than 100%.

Turning to `O=C(Nc1nnc(-c2ccc([N+](=O)[O-])cc2)o1)c1cc(-c2ccccc2)nc2ccccc12` [Ia-7, N-[5-(4-nitrophenyl)-1,3,4-oxadiazol-2-yl]-2-phenyl-4-quinolinecarboxamide], the inhibition at 100 µM was found to be 65%.

Regarding `O=C(Nc1nnc(-c2cccnc2)o1)c1cc(-c2ccccc2)nc2ccccc12` [Ia-9, 2-phenyl-N-[5-(3-pyridyl)-1,3,4-oxadiazol-2-yl]-4-quinolinecarboxamide], the inhibition at 100 µM came out at 65%.

As to `O=C(Nc1nnc(-c2ccco2)o1)c1cc(N2CCCCC2)nc2ccccc12` [Ia-14, N-[5-(2-furyl)-1,3,4-oxadiazol-2-yl]-2-piperidino-4-quinolinecarboxamide], the inhibition at 100 µM amounted to 63%.

`O=C(Nc1nnc(-c2ccco2)o1)c1cc(-c2cccc([N+](=O)[O-])c2)nc2ccccc12` [Ia-16, N-[5-(2-furyl)-1,3,4-oxadiazol-2-yl]-2-(3-nitrophenyl)-4-quinolinecarboxamide]: the inhibition at 100 µM was found to be 62%.

For the compound `O=C(Nc1nnc(-c2ccco2)o1)c1cc(-c2ccco2)nc2ccccc12` [Ia-18, 2-(2-furyl)-N-[5-(2-furyl)-1,3,4-oxadiazol-2-yl]-4-quinolinecarboxamide], the inhibition at 100 µM was 68%.

Turning to `COc1ccc2nc(-c3ccccc3)cc(C(=O)Nc3nnc(-c4ccco4)o3)c2c1` [Ia-23, N-[5-(2-furyl)-1,3,4-oxadiazol-2-yl]-6-methoxy-2-phenyl-4-quinolinecarboxamide], the inhibition at 100 µM is 100%.

Regarding `Cc1c(Cl)ccc2c(C(=O)Nc3nnc(-c4ccco4)o3)cc(-c3ccccc3)nc12` [Ia-26, 7-chloro-N-[5-(2-furyl)-1,3,4-oxadiazol-2-yl]-8-methyl-2-phenyl-4-quinolinecarboxamide], the inhibition at 100 µM amounted to 73%.

On to `Cc1ccc(-c2cc(C(=O)Nc3nnc(-c4ccco4)o3)c3cccc(C)c3n2)cc1` [Ia-27, N-[5-(2-furyl)-1,3,4-oxadiazol-2-yl]-8-methyl-2-(4-tolyl)-4-quinolinecarboxamide], for which the inhibition at 100 µM came out at 71%.

For the compound `Cc1c(Cl)ccc2c(C(=O)Nc3nnc(-c4ccco4)o3)cc(-c3ccco3)nc12` [Ia-28, 7-chloro-2-(2-furyl)-N-[5-(2-furyl)-1,3,4-oxadiazol-2-yl]-8-methyl-4-quinolinecarboxamide], the inhibition at 100 µM was greater than 100%.

Take `Cc1ccc2nc(-c3cccs3)cc(C(=O)Nc3nnc(-c4ccco4)o3)c2c1` [Ia-29, N-[5-(2-furyl)-1,3,4-oxadiazol-2-yl]-6-methyl-2-(2-thienyl)-4-quinolinecarboxamide]: the inhibition at 100 µM worked out at 65%.

Take `O=C(Nc1nnc(-c2ccco2)o1)c1cc(-c2cccs2)nc2ccc(Cl)cc12` [Ia-30, 6-chloro-N-[5-(2-furyl)-1,3,4-oxadiazol-2-yl]-2-(2-thienyl)-4-quinolinecarboxamide]: the inhibition at 100 µM amounted to 62%.

`O=C(Nc1nnc(-c2ccco2)o1)c1cc(-c2cccs2)nc2c(Cl)cccc12` [Ia-32, 8-chloro-N-[5-(2-furyl)-1,3,4-oxadiazol-2-yl]-2-(2-thienyl)-4-quinolinecarboxamide]: the inhibition at 100 µM was determined as 90%.

With `O=C(Nc1nnc(-c2ccco2)o1)c1cc(-c2ccccc2Cl)nc2ccccc12` [Ia-37, 2-(2-chlorophenyl)-N-[5-(2-furyl)-1,3,4-oxadiazol-2-yl]-4-quinolinecarboxamide], the inhibition at 100 µM worked out at 100%.

Consider `Nc1ccccc1-c1cc(C(=O)Nc2nnc(-c3ccco3)o2)c2ccccc2n1` [Ia-40, 2-(2-aminophenyl)-N-[5-(2-furyl)-1,3,4-oxadiazol-2-yl]-4-quinolinecarboxamide], for which the inhibition at 100 µM is 62%.

As for `O=C(Nc1nnc(-c2ccco2)o1)c1cc(-c2ccc(O)cc2)nc2ccccc12` [Ia-50, N-[5-(2-furyl)-1,3,4-oxadiazol-2-yl]-2-(4-hydroxyphenyl)-4-quinolinecarboxamide], the inhibition at 100 µM stood at 73%.

`Cc1ccc(-c2cc(C(=O)Nc3nnc(-c4ccco4)o3)c3ccccc3n2)c(C)c1` [Ia-56, N-[5-(2-furyl)-1,3,4-oxadiazol-2-yl]-2-(2,4-dimethylphenyl)-4-quinolinecarboxamide]: the inhibition at 100 µM turned out to be 99%.

As to `O=C(Nc1nnc(-c2ccco2)o1)c1cc(-c2ccco2)nc2c(Cl)cccc12` [Ia-79, 8-chloro-2-(2-furyl)-N-[5-(2-furyl)-1,3,4-oxadiazol-2-yl]-4-quinolinecarboxamide], the inhibition at 100 µM is greater than 100%.

For `O=C(Nc1nnc(-c2ccc([N+](=O)[O-])o2)o1)c1cc(-c2ccccc2)nc2ccccc12` [Ia-84, N-[5-(5-nitro-2-furyl)-1,3,4-oxadiazol-2-yl]-2-phenyl-4-quinolinecarboxamide], the inhibition at 100 µM is 56%.

Regarding `CN(C)CCOc1ccc2nc(-c3ccccc3)cc(C(=O)Nc3nnc(-c4ccco4)o3)c2c1` [Ia-88, N-[5-(2-furyl)-1,3,4-oxadiazol-2-yl]-6-[2-(dimethylamino)ethoxy]-2-phenyl-4-quinolinecarboxamide], the inhibition at 100 µM was 76%.

In the case of `COCCOc1ccc2nc(-c3ccccc3)cc(C(=O)Nc3nnc(-c4ccco4)o3)c2c1` [Ia-89, N-[5-(2-furyl)-1,3,4-oxadiazol-2-yl]-6-(2-methoxyethoxy)-2-phenyl-4-quinolinecarboxamide], the inhibition at 100 µM was greater than 100%.

Turning to `O=C(Nc1nnc(-c2ccco2)o1)c1cc(-c2ccccc2)nc2ccc(OCc3ccccc3)cc12` [Ia-90, 6-benzyloxy-N-[5-(2-furyl)-1,3,4-oxadiazol-2-yl]-2-phenyl-4-quinolinecarboxamide], the inhibition at 100 µM was greater than 100%.

As to `CCCC(=O)Nc1ccc2nc(-c3ccccc3)cc(C(=O)Nc3nnc(-c4ccco4)o3)c2c1` [Ia-94, 6-butyrylamino-N-[5-(2-furyl)-1,3,4-oxadiazol-2-yl]-2-phenyl-4-quinolinecarboxamide], the inhibition at 100 µM was found to be 89%.

In the case of `O=C(Nc1nnc(-c2ccccc2)o1)c1cc(-c2cccs2)nc2ccccc12` [Ia-j, N-(5-phenyl-1,3,4-oxadiazol-2-yl)-2-(2-thienyl)-4-quinolinecarboxamide], the inhibition at 100 µM was 91%.

For `O=C(Nc1nnc(-c2ccco2)s1)c1cc(-c2ccccc2)nc2ccccc12` [Ib-4, N-[5-(2-furyl)-1,3,4-thiadiazol-2-yl]-2-phenyl-4-quinolinecarboxamide], the inhibition at 100 µM stood at 58%.

On to `COc1ccc(OC)c(-c2cc(C(=O)Nc3nnc(-c4ccncc4)s3)c3ccccc3n2)c1` [Ib-c, 2-(2,5-dimethoxyphenyl)-N-[5-(4-pyridyl)-1,3,4-thiadiazol-2-yl]-4-quinolinecarboxamide], for which the inhibition at 100 µM is greater than 100%.

As for `O=C(Nc1nnc(-c2ccncc2)s1)c1cc(-c2cccnc2)nc2ccc(Cl)cc12` [Ib-d, 6-chloro-2-(3-pyridyl)-N-[5-(4-pyridyl)-1,3,4-thiadiazol-2-yl]-4-quinolinecarboxamide], the inhibition at 100 µM came to 73%.

Consider `Cc1ccc(-c2cc(C(=O)Nc3nnc(-c4ccncc4)s3)c3ccccc3n2)o1` [Ib-e, 2-(5-methyl-2-furyl)-N-[5-(4-pyridyl)-1,3,4-thiadiazol-2-yl]-4-quinolinecarboxamide], for which the inhibition at 100 µM is 85%.

With `Cc1cc(-c2cc(C(=O)Nc3nnc(-c4ccncc4)s3)c3cc(Cl)ccc3n2)c(C)s1` [Ib-f, 6-chloro-2-(2,5-dimethyl-3-thienyl)-N-[5-(4-pyridyl)-1,3,4-thiadiazol-2-yl]-4-quinolinecarboxamide], the inhibition at 100 µM was 100%.

The same assay, now with this note: compound at 100 μM; STAT3 reporter HeLa stable cell line; oncostatin M 10 ng/mL, 4 hours.
With `COc1ccc2cc(-c3cc(C(=O)Nc4nnc(-c5ccco5)o4)c4ccccc4n3)ccc2c1` [Ia-61, N-[5-(2-furyl)-1,3,4-oxadiazol-2-yl]-2-(6-methoxy-2-naphthyl)-quinolinecarboxamide], the “STAT3 transcription inhibitory activity (%)” value was greater than 100%.

Regarding “N-[(5-phenyl-1,3,4-oxadiazol-2-yl)methyl]-4-quinolinecarboxamide [Ia-10]”, the “STAT3 transcription inhibitory activity (%)” value was greater than 100%.
